Laboratory results taken from patent US20210315992A1, “ADJUVANT EFFECT OF THE TLR1/2 AGONIST DIPROVOCIM SYNERGIZES WITH CHECKPOINT-INHIBITING ANTIBODIES TO ELIMINATE DISEASE” (The Board of Regents of the University of Texas System, priority 2018, published 2021).

Columns and labels:
[1] = test system: OVA peptide-pulsed target cells; test: In vivo CTL killing assay; parameters: species or system mouse; conditions: Tlr1−/− or Tlr2−/− mice
[2] = test system: mouse peritoneal macrophages; test: IFN-β secretion by mouse peritoneal macrophages (ELISA); assay type: cell-based; conditions: 4 hours
Protocol: Thioglycollate-elicited macrophages were recovered 4 days after i.p. injection of 2 ml BBL thioglycollate medium, brewer modified (4% wt/vol; BD Biosciences) by peritoneal lavage with 5 ml phosphate buffered saline (PBS). The peritoneal macrophages were cultured in DMEM cell culture medium [DMEM containing 10% vol/vol FBS (Gemini Bio Products), 1% vol/vol penicillin and streptomycin (Life Technologies)] at 37° C. and 95% air/5% CO2.
Cells were seeded onto 96-well plates at 1×10^5 cells per well and stimulated with a Diprovocim (dissolved in DMSO, and final DMSO concentrations (0.2%) were kept constant in all experiments) for 4 h. Mouse TNF, IL-6, or IFN-β, or human TNF in the supernatants were measured by ELISA kits according to the manufacturer's instructions (eBioscience and PBL Assay Science). Pretreatment with 20 μg/ml anti-TLR1, anti-TLR2 or isotype control antibody (eBioscience) was for 1 hour. Unless otherwise indicated, mouse cells were from wild type C57BL/6J mice.

B16-OVA melanoma = test: Tumor-infiltrating leukocyte analysis in B16-OVA tumors (flow cytometry); assay type: in vivo, mouse
Protocol: A total of 2×10^5 B16-OVA cells in 100 μL PBS were injected s.c. into the flank of each mouse to establish tumors (n=6 mice per treatment). 10 mg/kg Diprovocim-1 or 2 mg/kg alum with OVA (100 μg) was injected i.m. into mice on day 3 after tumor inoculation. Mice received a booster shot seven days after the first immunization. On day 3, 6, 9, and 12 after tumor inoculation, mice were also injected i.p. with 200 μg anti-mPD-L1.
On day 14 after tumor inoculation, tumors were harvested, minced and filtered through a 40-μm strainer to obtain single-cell suspensions. Red blood cells were lysed with RBC lysis buffer (Sigma). After pelleting, cells were stained with a mixture of antibodies for 45 minutes, including anti-mouse CD45.2-PE or CD45.2-APC (BioLegend), anti-mouse CD3-FITC (BD Biosciences), anti-mouse CD4-BV786 (BD Biosciences), anti-mouse CD8-BV510 (BioLegend), anti-mouse CD44-PE-CF594 (BioLegend), APC-conjugated H-2Kb/OVA (SIINFEKL; SEQ ID NO: XX) tetramer (Baylor College of Medicine), anti-mouse F4/80-PE (Tonbo Bioscience), anti-mouse CD11b-BV605 (BioLegend), anti-CD11c-BV711 (BD Biosciences), anti-NK1.1-BV650 (BD Biosciences). Then, the cells were washed twice with PBS. Stained cells were analyzed with an LSRII instrument (BD Biosciences) and the flow cytometry data were analyzed using FlowJo software.

mice = test: In vivo adjuvant activity and toxicity in mice when co-injected with an immunogen; conditions: compared with LPS administration

O=C(N[C@H]1C[C@@H]1c1ccccc1)[C@@H]1CN(C(=O)c2ccc(C(=O)N3C[C@@H](C(=O)N[C@H]4C[C@@H]4c4ccccc4)[C@H](C(=O)N[C@H]4C[C@@H]4c4ccccc4)C3)cc2)C[C@H]1C(=O)N[C@H]1C[C@@H]1c1ccccc1 [Diprovocim-1, (3S,3'S,4S,4'S)-1,1′-Terephthaloylbis(N^3,N^4-bis((1S,2R)-2-phenylcyclo-propyl)pyrrolidine-3,4-dicarboxamide)]
adjuvant activity in CTL killing in TLR1- and/or TLR2-deficient mice [1]: abrogated | type I IFN (IFN-β) production [2]: failed to stimulate type I IFN production | type I IFN (IFN-β) production ([2]; listed as Diprovocim): does not stimulate IFN-β secretion | frequency of leukocytes (TILs) in tumors compared to vehicle+OVA (B16-OVA melanoma; day 14, immunization day 3 and 10, plus anti-PD-L1): significantly increased | frequency of NK cells in tumors (B16-OVA melanoma; day 14, vs vehicle+OVA): increased | frequency of OVA-specific CD8 T cells in tumors (B16-OVA melanoma; day 14, vs vehicle+OVA): increased | frequency of total and activated (CD44high) CD4 T cells in tumors (B16-OVA melanoma; day 14, vs vehicle+OVA): increased | frequency of total and activated (CD44high) CD8 T cells in tumors (B16-OVA melanoma; day 14, vs vehicle+OVA): increased | overt toxicity when used as an adjuvant (mice): did not display the overt toxicity
